Results taken from patent US10550110B2, “Tetrahydroquinoline sulfonamide derivatives as inverse agonists of retinoid-related orphan receptor gamma (ROR gamma (t))” (GALDERMA RESEARCH & DEVELOPMENT, priority 2014, dated 2020).
pIC50: −log10 of the molar value. Where two headings read alike, the source gives them in different places.

Tests used:
[1] = target: T1, ROR gamma ligand-binding domain (LBD) (hRORg) (Homo sapiens, UniProt P51449); test: GAL4-RORγ transactivation (luciferase reporter, HG5LN HeLa line); format: cell-based; conditions: HG5LN HeLa line with GAL4 DBD fused to ROR gamma LBD, 18 hours incubation
T1 construct: expressed in transfected cells; host or cells: HG5LN (HeLa line with GAL4-responsive luciferase reporter)
T1 sequence (P51449 269-508 limits assumed): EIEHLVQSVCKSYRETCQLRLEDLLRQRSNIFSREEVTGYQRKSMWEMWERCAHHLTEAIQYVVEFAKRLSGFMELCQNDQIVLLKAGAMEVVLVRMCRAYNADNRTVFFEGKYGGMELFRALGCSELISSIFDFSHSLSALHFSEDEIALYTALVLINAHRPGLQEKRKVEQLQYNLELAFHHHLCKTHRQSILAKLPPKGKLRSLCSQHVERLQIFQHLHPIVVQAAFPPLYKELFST
Text: GAL4—RORγ Transactivation
The RORγ transactivation model was developed from the line HG5LN, which is a HeLa line that stably expresses a luciferase reporter gene controlled by a pentamer of the GAL4 recognition domain of yeast and of a β-globin promoter. The HG5LN line was stably transfected by the DNA-binding domain (DBD) of GAL4 fused to the ROR gamma ligand-binding domain (LBD). Molecules that inhibit the ROR gamma constitutive activity reduce the luciferase expression, thus leading to a reduction in the emitted luminescence.
The cells are seeded in 384-well plates (5000 cells in 45 μL/well of culture medium containing 10% fetal calf serum) and incubated for 4 hours at 37° C., 5% CO2. 5 μL of the test molecules (compounds described in the tables described above) are then added to each well and the plates are incubated for 18 hours at a temperature of 37° C. under 5% of CO2. 20 μL of luciferase substrate (Promega) are added to each well and the luminescence emitted is read by a microplate reader.
The luminescence units (“RLU”) are normalized by positive controls (“POS” containing a saturated concentration of N-(2,2,2-trifluoroethyl)-N-[4-[2,2,2-trifluoro-1-hydroxy-1-(trifluoromethyl)ethyl]phenyl])benzenesulfonamide and negative controls (“NEG” containing DMSO): % inhibition=((RLU-NEG)*100)/(POS-NEG). The IC50 values are calculated from a 4-parameter logistic model using the XLFit software (IDBS).

[2] = tested on: IL-17A secretion by CD4+ cells; test: IL-17A secretion by CD4+ cells (HTRF); format: cell-based; conditions: human peripheral blood CD4+ cells activated with anti-CD3 and anti-CD28, 4 days incubation, IL-17A by HTRF, read-out: IC50 hCD4/IL17
Procedure: This model allows measurement of the effect of inhibitors on IL-17A secretion by CD4+ cells. The cells are frozen CD4+ cells (STEMCELL, #70026), isolated from peripheral human blood and activated with anti-CD3 and anti-CD28 antibodies. The amount of IL-17A secreted is measured by the TR-FRET (kit HTRF® Human Interleukin 17A (Cisbio, #64H17PEC)) technology.
The cells are rapidly thawed, resuspended in their culture medium (RPMI inactivated 10% FCS) supplemented with soluble anti-CD28 antibodies and seeded (100 000 cells/well) in 96-well plates precoated with anti-CD3 antibodies. The cells are then treated with the ranges of inhibitors to be tested (from 1000 nM to 0.05 nM, 0.1% DMSO). After 4 days of incubation, the HTRF signal is measured using a microplate reader (λexcitation=337 nm, λemission=620/665 nm). The ratios obtained (665/620) are normalized relative to the positive control (cells activated with anti-CD3 and anti-CD28, 0.1% DMSO). The IC50 values are calculated from a 4-parameter logistic model using the XLFit software (IDBS).

| Compound | pIC50 [1] | pIC50 ([2]; 96 h) | pIC50 [2] |
| --- | --- | --- | --- |
| CCc1ccc(N(CC(C)C)S(=O)(=O)c2ccc3c(c2)C(O)CCN3CC2CCOCC2)cc1 (single isomer, unassigned) [Enantiomer 2, 4-hydroxy-1-(tetrahydropyran-4-ylmethyl)-1,2,3,4-tetrahydroquinoline-6-sulfonic acid (4-ethylphenyl)isobutylamide] | 6.00 to 7.00 | > 7.00 |  |
| CCc1ccc(N(CC(C)C)S(=O)(=O)c2ccc3c(c2)C(=O)CCN3CC2CCOCC2)cc1 [Compound 1, 4-oxo-1-(tetrahydropyran-4-ylmethyl)-1,2,3,4-tetrahydroquinoline-6-sulfonic acid (4-ethylphenyl)isobutylamide] | 6.00 to 7.00 | 6.00 to 7.00 |  |
| CCc1ccc(N(CC(C)C)S(=O)(=O)c2ccc3c(c2)C(=O)CCN3Cc2ccncc2)cc1 [Compound 4, 4-oxo-1-pyridin-4-ylmethyl-1,2,3,4-tetrahydroquinoline-6-sulfonic acid (4-ethylphenyl)isobutylamide] | > 7.00 | > 7.00 |  |
| CCc1ccc(N(CC(C)C)S(=O)(=O)c2ccc3c(c2)C(O)CCN3Cc2ccncc2)cc1 (stereo not drawn) [Compound 10, 4-hydroxy-1-pyridin-4-ylmethyl-1,2,3,4-tetrahydroquinoline-6-sulfonic acid (4-ethylphenyl)isobutylamide] | > 7.00 | > 7.00 |  |
| CCc1ccc(N(CC(C)C)S(=O)(=O)c2ccc3c(c2)C(O)CCN3CC2CCN(C(=O)OC)CC2)cc1 (stereo not drawn) [Compound 51, methyl ester of 4-{6-[(4-ethylphenyl)isobutylsulfamoyl]-4-hydroxy-3,4-dihydro-2H-quinolin-1-ylmethyl}piperidine-1-carboxylic acid] | < 6.00 |  |  |
| CCc1ccc(N(CC(C)C)S(=O)(=O)c2ccc3c(c2)C(=O)CCN3C2CCNCC2)cc1 [Compound 55, 4-oxo-1-piperidin-4-yl-1,2,3,4-tetrahydroquinoline-6-sulfonic acid (4-ethylphenyl)isobutylamide] | < 6.00 |  |  |
| CCc1ccc(N(CC(C)C)S(=O)(=O)c2ccc3c(c2)C(O)CCN3CC2CCNCC2)cc1 (stereo not drawn) [Compound 56, 4-hydroxy-1-piperidin-4-ylmethyl-1,2,3,4-tetrahydroquinoline-6-sulfonic acid (4-ethylphenyl)isobutylamide] | < 6.00 |  |  |
| CCc1ccc(N(CC(C)C)S(=O)(=O)c2ccc3c(c2)C(O)CCN3CC2CCN(C(C)=O)CC2)cc1 (stereo not drawn) [Compound 58, 1-(1-acetylpiperidin-4-ylmethyl)-4-hydroxy-1,2,3,4-tetrahydroquinoline-6-sulfonic acid (4-ethylphenyl)isobutylamide] | < 6.00 |  |  |
| CCc1ccc(N(CC(C)C)S(=O)(=O)c2ccc3c(c2)C(O)CCN3C2CCN(C(C)=O)CC2)cc1 (stereo not drawn) [Compound 61, 1-(1-acetylpiperidin-4-yl)-4-hydroxy-1,2,3,4-tetrahydroquinoline-6-sulfonic acid (4-ethylphenyl)isobutylamide] | < 6.00 |  |  |
| CCc1ccc(N(CC(C)C)S(=O)(=O)c2ccc3c(c2)C(=O)CCN3C2CCN(S(C)(=O)=O)CC2)cc1 [Compound 63, 1-(1-methanesulfonylpiperidin-4-yl)-4-oxo-1,2,3,4-tetrahydroquinoline-6-sulfonic acid (4-ethylphenyl)isobutylamide] | < 6.00 |  |  |
| COc1ccc(N(C(C)C)S(=O)(=O)c2ccc3c(c2)C(O)CCN3Cc2cn[nH]c2)c(C)c1 (stereo not drawn) [Compound 65, 4-hydroxy-1-(1H-pyrazol-4-ylmethyl)-1,2,3,4-tetrahydroquinoline-6-sulfonic acid isopropyl(4-methoxy-2-methylphenyl)amide] | < 6.00 |  |  |

The next lines start with the values.

| pIC50 [1] | pIC50 ([2]; 96 h) | pIC50 [2] | Compound |
| --- | --- | --- | --- |
| 6.00 to 7.00 | > 7.00 |  | CCc1ccc(N(CC(C)C)S(=O)(=O)c2ccc3c(c2)C(O)CCN3CC2CC(O)C2)cc1 (mixture of isomers) [Compound 20, 4-hydroxy-1-(3-hydroxycyclobutylmethyl)-1,2,3,4-tetrahydroquinoline-6-sulfonic acid (4-ethylphenyl)isobutylamide] |
| > 7.00 | 6.00 to 7.00 |  | CCc1ccc(N(CC(C)C)S(=O)(=O)c2ccc3c(c2)C(O)CCN3CC2CCOCC2)cc1 (racemic) [Compound 2, 4-hydroxy-1-(tetrahydropyran-4-ylmethyl)-1,2,3,4-tetrahydroquinoline-6-sulfonic acid (4-ethylphenyl)isobutylamide] |
| > 7.00 |  | > 7.00 | CCc1ccc(N(CC(C)C)S(=O)(=O)c2ccc3c(c2)C(O)CCN3CC2CCOCC2)cc1 (single isomer, unassigned) [Enantiomer 1, 4-hydroxy-1-(tetrahydropyran-4-ylmethyl)-1,2,3,4-tetrahydroquinoline-6-sulfonic acid (4-ethylphenyl)isobutylamide] |
| < 6.00 |  |  | CCc1ccc(N(CC(C)C)S(=O)(=O)c2ccc3c(c2)C(O)CCN3Cc2ccc(C(=O)NO)cc2)cc1 (stereo not drawn) [Compound 47, 4-{6-[(4-ethylphenyl)isobutylsulfamoyl]-4-hydroxy-3,4-dihydro-2H-quinolin-1-ylmethyl}-N-hydroxybenzamide] |
| < 6.00 |  |  | CCc1ccc(N(CC(C)C)S(=O)(=O)c2ccc3c(c2)C(O)CCN3[C@H]2CC[C@H](C(=O)OC)CC2)cc1 (stereo partly drawn) [Compound 48, methyl (1R,4R)-4-(6-(N-(4-ethylphenyl)-N-isobutylsulfamoyl)-4-hydroxy-3,4-dihydroquinolin-1(2H)-yl)cyclohexane-1-carboxylate] |
| < 6.00 |  |  | CCc1ccc(N(CC(C)C)S(=O)(=O)c2ccc3c(c2)C(O)CCN3[C@H]2CC[C@@H](C(=O)OC)CC2)cc1 (stereo partly drawn) [Compound 49, methyl (1S,4S)-4-(6-(N-(4-ethylphenyl)-N-isobutylsulfamoyl)-4-hydroxy-3,4-dihydroquinolin-1(2H)-yl)cyclohexane-1-carboxylate] |
| < 6.00 |  |  | CCc1ccc(N(CC(C)C)S(=O)(=O)c2ccc3c(c2)C(O)CCN3CC2CCN(C(=O)OC)C2)cc1 (stereo not drawn) [Compound 50, methyl ester of 3-{6-[(4-ethylphenyl)isobutylsulfamoyl]-4-hydroxy-3,4-dihydro-2H-quinolin-1-ylmethyl}pyrrolidine-1-carboxylic acid] |
| < 6.00 |  |  | CCc1ccc(N(CC(C)C)S(=O)(=O)c2ccc3c(c2)C(=O)CCN3CC2CCNCC2)cc1 [Compound 54, 4-oxo-1-piperidin-4-ylmethyl-1,2,3,4-tetrahydroquinoline-6-sulfonic acid (4-ethylphenyl)isobutylamide] |
| < 6.00 |  |  | CCc1ccc(N(CC(C)C)S(=O)(=O)c2ccc3c(c2)C(O)CCN3C2CCNCC2)cc1 (stereo not drawn) [Compound 57, 4-hydroxy-1-piperidin-4-yl-1,2,3,4-tetrahydroquinoline-6-sulfonic acid (4-ethylphenyl)isobutylamide] |
| < 6.00 |  |  | CCc1ccc(N(CC(C)C)S(=O)(=O)c2ccc3c(c2)C(O)CCN3CC2CCN(S(C)(=O)=O)CC2)cc1 (stereo not drawn) [Compound 59, 4-hydroxy-1-(1-methanesulfonylpiperidin-4-ylmethyl)-1,2,3,4-tetrahydroquinoline-6-sulfonic acid (4-ethylphenyl)isobutylamide] |
| < 6.00 |  |  | CCc1ccc(N(CC(C)C)S(=O)(=O)c2ccc3c(c2)C(=O)CCN3C2CCN(C(C)=O)CC2)cc1 [Compound 60, 1-(1-acetylpiperidin-4-yl)-4-oxo-1,2,3,4-tetrahydroquinoline-6-sulfonic acid (4-ethylphenyl)isobutylamide] |
| < 6.00 |  |  | CCc1ccc(N(CC(C)C)S(=O)(=O)c2ccc3c(c2)C(O)CCN3C2CCN(S(C)(=O)=O)CC2)cc1 (stereo not drawn) [Compound 64, 4-hydroxy-1-(1-methanesulfonylpiperidin-4-yl)-1,2,3,4-tetrahydroquinoline-6-sulfonic acid (4-ethylphenyl)isobutylamide] |
